In US20250059205A1, “Heterocyclic Compounds and Methods of Use” (AMGEN INC., priority 2021, published 2025):

Tests used:
[1] = target: His-tagged KRAS G12D protein (Homo sapiens, UniProt P01116, G12D); assay: KRAS G12D TR-FRET Assay; type: binding
[2] = tested on: Phosphorylation of ERK1/2 in A-427 cells; assay: Phospho-ERK1/2 MSD Assay (A-427 cells); type: cell-based; conditions: Homo sapiens, A-427, 2 h, 2 h treatment, read-out: p-ERK (A427 cells) IC50
Outline: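 ERK1/2 phosphorylation measured by Meso Scale whole-cell lysate assay after A-427 cells were exposed to a titration of compound for 2 h at 37 °C.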

[3] = tested on: Phosphorylation of ERK1/2 in AsPC-1 cells; assay: Phospho-ERK1/2 MSD Assay (AsPC-1 cells); type: cell-based; conditions: Homo sapiens, ASPC1, 2 h, 2 hours treatment, read-out: p-ERK (AsPC-1 cells) IC50
Outline: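 Read-out: MSD electrochemiluminescent detection of phosphorylated ERK1/2 in whole-cell lysates, fitted to a 4-parameter logistic curve for IC50. Prior to lysis, AsPC-1 cells (25,000 per well) received a 2 h compound dose-response at 37 °C.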

[4] = target: GDP-bound KRAS protein (aa 1-169), containing both G12D and C118A amino acid substitutions (Homo sapiens, UniProt P01116, C118A/G12D); assay: KRAS G12D Coupled Nucleotide Exchange Assay; type: biochemical; conditions: 2 h compound pre-incubation
GDP-bound KRAS protein (aa 1-169), containing both G12D and C118A amino acid substitutions, sequence (P01116 1-169 isoform P01116-2 G12D/C118A): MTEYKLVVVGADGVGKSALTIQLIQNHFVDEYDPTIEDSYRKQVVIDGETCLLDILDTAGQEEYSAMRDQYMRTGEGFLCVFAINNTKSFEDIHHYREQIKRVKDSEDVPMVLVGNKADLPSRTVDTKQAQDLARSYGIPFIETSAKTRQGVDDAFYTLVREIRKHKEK
Procedure: Following compound pre-incubation, purified SOS protein (aa 564-1049) and GTP (Roche 10106399001) were added to the assay wells and incubated for an additional 30 min. […] The assay plates were then read on a PerkinElmer EnVision Multilabel Reader, using AlphaScreen® technology, and data were analyzed using a 4-parameter logistic model to calculate IC50 values.

His-tagged KRAS G12D protein, sequence (P01116 1-188 isoform P01116-2 G12D): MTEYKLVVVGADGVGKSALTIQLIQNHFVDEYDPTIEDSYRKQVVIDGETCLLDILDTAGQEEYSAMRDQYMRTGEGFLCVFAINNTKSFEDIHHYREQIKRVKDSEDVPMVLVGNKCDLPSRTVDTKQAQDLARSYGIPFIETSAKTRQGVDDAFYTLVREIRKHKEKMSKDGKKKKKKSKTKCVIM

| SMILES | IC50 [1] [nM] | IC50 [2] [nM] | IC50 [3] [nM] | Avg 2 h Coupled Exchange IC50 [4] [nM] |
| --- | --- | --- | --- | --- |
| Nc1cc(-c2c(F)cc3c(N4C[C@H]5CC[C@@H](C4)N5)nc(OC[C@@]45CCCN4C[C@H](F)C5)nc3c2F)c2ccccc2c1 [Example 116, 4-(4-((1R,5S)-3,8-diazabicyclo[3.2.1]octan-3-yl)-6,8-difluoro-2-(((2R,7aS)-2-fluorotetrahydro-1H-pyrrolizin-7a(5H)-yl)methoxy)quinazolin-7-yl)naphthalen-2-amine] | 30 | 254 | 454 | 5 |
| Nc1cc(-c2c(F)cc3c(N4C[C@@H]5CC[C@H]4CN5)nc(OC[C@@]45CCCN4C[C@H](F)C5)nc3c2F)c2ccccc2c1 [Example 117, 4-(4-((1S,4S)-2,5-diazabicyclo[2.2.2]octan-2-yl)-6,8-difluoro-2-(((2R,7aS)-2-fluorotetrahydro-1H-pyrrolizin-7a(5H)-yl)methoxy)quinazolin-7-yl)naphthalen-2-amine] | 13 | 411 | 899 | 7 |
| Nc1cc(F)c(F)c(-c2c(F)cc3c(N4CC5CCC(C4)N5)nc(OC[C@@]45CCCN4C[C@H](F)C5)nc3c2F)c1 [Example 118] | 140 | 6780 | 4950 | 39 |
| CCc1c(F)ccc2cc(O)cc(-c3c(F)cc4c(N5C[C@H]6CCC[C@@H](C5)N6)nc(OC[C@@]56CCCN5C[C@H](F)C6)nc4c3F)c12 [Example 119, 4-(4-((1R,5S)-3,9-diazabicyclo[3.3.1]nonan-3-yl)-6,8-difluoro-2-(((2R,7aS)-2-fluorotetrahydro-1H-pyrrolizin-7a(5H)-yl)methoxy)quinazolin-7-yl)-5-ethyl-6-fluoronaphthalen-2-ol] | 5 | 156 | 276 | 4 |
| Oc1cc(-c2c(F)cc3c(N4C[C@H]5CCC[C@@H](C4)N5)nc(OC[C@@]45CCCN4C[C@H](F)C5)nc3c2F)c2ccccc2c1 [Example 120, 4-(4-((1R,5S)-3,9-diazabicyclo[3.3.1]nonan-3-yl)-6,8-difluoro-2-(((2R,7aS)-2-fluorotetrahydro-1H-pyrrolizin-7a(5H)-yl)methoxy)quinazolin-7-yl)naphthalen-2-ol] | 8 | 1160 | 1170 | 4 |
| CCc1c(F)ccc2cc(O)cc(-c3c(F)cc4c(N5C[C@H]6C[C@@H](C5)N6)nc(OC[C@@]56CCCN5C[C@H](F)C6)nc4c3F)c12 [Example 121, 4-(4-((1R,5S)-3,6-diazabicyclo[3.1.1]heptan-3-yl)-6,8-difluoro-2-(((2R,7aS)-2-fluorotetrahydro-1H-pyrrolizin-7a(5H)-yl)methoxy)quinazolin-7-yl)-5-ethyl-6-fluoronaphthalen-2-ol] | 26 | 5530 | 2850 | 8 |
| Oc1ccc(-c2c(F)cc3c(N4C[C@H]5CC[C@@H](C4)N5)nc(OC[C@@]45CCCN4C[C@H](F)C5)nc3c2F)c2ccccc12 [Example 122, 4-(4-((1R,5S)-3,8-diazabicyclo[3.2.1]octan-3-yl)-6,8-difluoro-2-(((2R,7aS)-2-fluorotetrahydro-1H-pyrrolizin-7a(5H)-yl)methoxy)quinazolin-7-yl)naphthalen-1-ol] | 5 | 167 | 282 | 5 |
| CCc1c(F)ccc2cc(O)cc(-c3c(F)cc4c(N5C[C@H]6CC[C@@H](C5)N6)nc(OCC(O)(CC)CC)nc4c3F)c12 [Example 123, 4-(4-((1R,5S)-3,8-diazabicyclo[3.2.1]octan-3-yl)-2-(2-ethyl-2-hydroxybutoxy)-6,8-difluoroquinazolin-7-yl)-5-ethyl-6-fluoronaphthalen-2-ol] | 12 | 1990 | 2240 | 12 |
| CCC(O)(CC)COc1nc(N2C[C@H]3CC[C@@H](C2)N3)c2cc(F)c(-c3cc(O)cc4ccc(F)c(F)c34)c(F)c2n1 [Example 124, 4-(4-((1R,5S)-3,8-diazabicyclo[3.2.1]octan-3-yl)-2-(2-ethyl-2-hydroxybutoxy)-6,8-difluoroquinazolin-7-yl)-5,6-difluoronaphthalen-2-ol] | 34 | 4320 | 2410 | 19 |
| CC(O)COc1nc(N2C[C@H]3CC[C@@H](C2)N3)c2cc(F)c(-c3cc(O)cc4ccccc34)c(F)c2n1 (stereo partly drawn) [Example 125, 4-(4-((1R,5S)-3,8-diazabicyclo[3.2.1]octan-3-yl)-6,8-difluoro-2-(2-hydroxypropoxy)quinazolin-7-yl)naphthalen-2-ol] | 114 | > 10000 | > 10000 | 39 |
| CCc1c(F)ccc2cc(O)cc(-c3c(F)cc4c(N5C[C@H]6CC[C@@H](C5)N6)nc(OC[C@@H]5CCC(=O)N5)nc4c3F)c12 [Example 126, (5S)-5-(((4-((1R,5S)-3,8-diazabicyclo[3.2.1]octan-3-yl)-7-(8-ethyl-7-fluoro-3-hydroxynaphthalen-1-yl)-6,8-difluoroquinazolin-2-yl)oxy)methyl) pyrrolidin-2-one] | 6 | 388 | 1220 | 2 |
| CCc1c(F)ccc2cc(O)cc(-c3c(F)cc4c(N5C[C@H]6CC[C@@H](C5)N6)nc(OC[C@H]5CCC(=O)N5)nc4c3F)c12 [Example 127, (5R)-5-(((4-((1R,5S)-3,8-diazabicyclo[3.2.1]octan-3-yl)-7-(8-ethyl-7-fluoro-3-hydroxynaphthalen-1-yl)-6,8-difluoroquinazolin-2-yl)oxy)methyl) pyrrolidin-2-one] | 12 | 3300 | 7500 | 3 |
| CCc1c(F)ccc2cc(O)cc(-c3c(F)cc4c(N5C[C@H]6CC[C@@H](C5)N6)nc(OCC56CCCN5CC(F)(F)C6)nc4c3F)c12 (stereo partly drawn) [Example 128, 4-(4-((1R,5S)-3,8-diazabicyclo[3.2.1]octan-3-yl)-2-((2,2-difluorotetrahydro-1H-pyrrolizin-7a(5H)-yl)methoxy)-6,8-difluoroquinazolin-7-yl)-5-ethyl-6-fluoronaphthalen-2-ol] | 3 | 308 | 243 | 4 |
| CCc1c(F)ccc2cc(O)cc(-c3c(Cl)cc4c(N5C[C@@H]6CC[C@H]5CN6)nc(OC[C@@]56CCCN5C[C@H](F)C6)nc4c3F)c12 [Example 129, 4-(4-((1S,4S)-2,5-diazabicyclo[2.2.2]octan-2-yl)-6-chloro-8-fluoro-2-(((2R,7aS)-2-fluorotetrahydro-1H-pyrrolizin-7a(5H)-yl)methoxy)quinazolin-7-yl)-5-ethyl-6-fluoronaphthalen-2-ol] | 4 | 29 | 83 | 5 |
| CCc1cccc2cc(O)cc(-c3c(Cl)cc4c(N5C[C@@H]6CC[C@H]5CN6)nc(OC[C@@]56CCCN5C[C@H](F)C6)nc4c3F)c12 [Example 130, 4-(4-((1S,4S)-2,5-diazabicyclo[2.2.2]octan-2-yl)-6-chloro-8-fluoro-2-(((2R,7aS)-2-fluorotetrahydro-1H-pyrrolizin-7a(5H)-yl)methoxy)quinazolin-7-yl)-5-ethylnaphthalen-2-ol] | 3 | 52 | 102 | 5 |
